Source: PubChem BioAssay (NCI)
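Test compounds were applied to cells in 96-well plates for 48 hours at 5 doses. GI50 is the concentration that inhibits growth by half. The concentration for full growth arrest is given as TGI.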

What was measured:
Test in all cases: growth of human tumour cells (NCI), 48 h
HCT-116 colon = system: HCT-116 colon
HCT-15 colon = system: HCT-15 colon
NCI-H23 lung = system: NCI-H23 lung
NCI-H460 lung = system: NCI-H460 lung
OVCAR-5 ovarian = system: OVCAR-5 ovarian
SF-295 CNS = system: SF-295 CNS
SK-MEL-2 melanoma = system: SK-MEL-2 melanoma
SN12C renal = system: SN12C renal
MOLT-4 leukemia = system: MOLT-4 leukemia
T-47D breast = system: T-47D breast

## CC(=O)[CH-]C(=O)c1ccccc1.CC(=O)[CH-]C(=O)c1ccccc1.CN(C)c1ccc([O-])cc1.CN(C)c1ccc([O-])cc1.Cl.[Ti+4]
HCT-116 colon
  GI50: 18.1 µM
  TGI: > 31.6 µM
HCT-15 colon
  GI50: 25.5 µM
  TGI: > 31.6 µM
NCI-H23 lung
  GI50: 21.1 µM
  TGI: > 31.6 µM
NCI-H460 lung
  GI50: 15.1 µM
  TGI: > 31.6 µM
OVCAR-5 ovarian
  GI50: 49.2 µM
  TGI: > 100 µM
SF-295 CNS
  GI50: 46.3 µM
  TGI: > 100 µM
SK-MEL-2 melanoma
  GI50: > 31.6 µM
  TGI: > 31.6 µM
SN12C renal
  GI50: 23.7 µM
  TGI: > 31.6 µM

## COC(=O)C1(C(C)C)CCc2c(OC)ccc(OC)c2C1=O (configuration not stated)
HCT-116 colon
  TGI: > 100 µM
HCT-15 colon
  TGI: > 100 µM
MOLT-4 leukemia
  TGI: > 100 µM
NCI-H460 lung
  TGI: > 100 µM
OVCAR-5 ovarian
  TGI: > 100 µM
SF-295 CNS
  TGI: > 100 µM
SK-MEL-2 melanoma
  TGI: > 100 µM
SN12C renal
  TGI: > 100 µM

## Cc1cc(-c2nc(C(=O)Nc3cc4oc(N5CCOCC5)nc4nc3N3CC[C@@H](O)C3)co2)ccn1
HCT-116 colon
  GI50: 30.1 µM
  TGI: > 100 µM
HCT-15 colon
  GI50: 25.7 µM
  TGI: > 100 µM
MOLT-4 leukemia
  GI50: 38.3 µM
  TGI: > 100 µM
NCI-H23 lung
  GI50: 28.1 µM
  TGI: > 100 µM
NCI-H460 lung
  GI50: 44 µM
  TGI: > 100 µM
OVCAR-5 ovarian
  GI50: > 100 µM
  TGI: > 100 µM
SF-295 CNS
  GI50: 87.5 µM
  TGI: > 100 µM
SK-MEL-2 melanoma
  GI50: 23 µM
  TGI: 99.8 µM
SN12C renal
  GI50: 26 µM
  TGI: > 100 µM
T-47D breast
  GI50: 22.1 µM
  TGI: > 100 µM

## O=C(CC(=O)c1cccc2ccccc12)C(=O)Nc1ccc(Cl)cc1
HCT-116 colon
  TGI: > 100 µM
HCT-15 colon
  TGI: > 100 µM
MOLT-4 leukemia
  TGI: > 100 µM
NCI-H23 lung
  TGI: > 100 µM
NCI-H460 lung
  TGI: > 100 µM
OVCAR-5 ovarian
  TGI: > 100 µM
SF-295 CNS
  TGI: > 100 µM
SN12C renal
  TGI: > 100 µM

## COc1cc2cc(OC)c3cc4c(cc3c2c(OC)c1OC)OCO4
HCT-116 colon
  TGI: > 84.4 µM
HCT-15 colon
  TGI: > 51.1 µM
MOLT-4 leukemia
  TGI: > 85.8 µM
NCI-H23 lung
  TGI: > 81.2 µM
NCI-H460 lung
  TGI: 52 µM
OVCAR-5 ovarian
  TGI: 90.9 µM
SF-295 CNS
  TGI: > 76 µM
SK-MEL-2 melanoma
  TGI: > 100 µM
SN12C renal
  TGI: > 100 µM

## CCn1c(C)nn2c(=O)c3ccccc3nc2c1=O
HCT-116 colon
  TGI: > 100 µM
HCT-15 colon
  TGI: > 100 µM
MOLT-4 leukemia
  TGI: > 100 µM
NCI-H23 lung
  TGI: > 100 µM
NCI-H460 lung
  TGI: > 100 µM
OVCAR-5 ovarian
  TGI: > 100 µM
SF-295 CNS
  TGI: > 100 µM
SK-MEL-2 melanoma
  TGI: > 100 µM

## CCN(CC)N=Nc1c(C(N)=O)n[nH]c1C
HCT-116 colon
  TGI: > 100 µM
HCT-15 colon
  TGI: > 100 µM
NCI-H23 lung
  TGI: > 100 µM
NCI-H460 lung
  TGI: > 100 µM
SF-295 CNS
  TGI: > 100 µM
SK-MEL-2 melanoma
  TGI: > 100 µM
SN12C renal
  TGI: > 100 µM
T-47D breast
  TGI: > 100 µM

## CC1(C)C(=O)/C=C\C(=O)C(C)(C)C2=CC=C(O2)C(C)(C)C(=O)/C=C\C(=O)C(C)(C)C2=CC=C1O2
HCT-116 colon
  TGI: > 100 µM
HCT-15 colon
  TGI: > 100 µM
MOLT-4 leukemia
  TGI: > 100 µM
NCI-H23 lung
  TGI: > 100 µM
NCI-H460 lung
  TGI: > 100 µM
OVCAR-5 ovarian
  TGI: > 100 µM
SF-295 CNS
  TGI: > 100 µM
SK-MEL-2 melanoma
  TGI: > 100 µM
SN12C renal
  TGI: > 100 µM

## Cc1nc2c(ccc3ncccc32)[nH]1
HCT-15 colon
  TGI: > 100 µM
MOLT-4 leukemia
  TGI: > 100 µM
NCI-H23 lung
  TGI: > 100 µM
NCI-H460 lung
  TGI: > 100 µM
OVCAR-5 ovarian
  TGI: > 100 µM
SF-295 CNS
  TGI: > 100 µM
SK-MEL-2 melanoma
  TGI: > 100 µM
SN12C renal
  TGI: > 100 µM

## CCCC1C(=O)CCc2c(OC)ccc(OC)c21 (configuration not stated)
HCT-116 colon
  TGI: > 100 µM
HCT-15 colon
  TGI: > 100 µM
MOLT-4 leukemia
  TGI: > 100 µM
NCI-H23 lung
  TGI: > 100 µM
NCI-H460 lung
  TGI: > 100 µM
OVCAR-5 ovarian
  TGI: > 100 µM
SF-295 CNS
  TGI: > 100 µM
SK-MEL-2 melanoma
  TGI: > 100 µM
SN12C renal
  TGI: > 100 µM

## O=C(O)CCNCCCNCCC(=O)O
HCT-116 colon
  TGI: > 100 µM
HCT-15 colon
  TGI: > 100 µM
MOLT-4 leukemia
  TGI: > 100 µM
NCI-H23 lung
  TGI: > 100 µM
NCI-H460 lung
  TGI: > 100 µM
OVCAR-5 ovarian
  TGI: > 100 µM
SF-295 CNS
  TGI: > 100 µM
SK-MEL-2 melanoma
  TGI: > 100 µM
SN12C renal
  TGI: > 100 µM

## COC(=O)/C(C#N)=C1\NC(=O)c2ccccc21
HCT-116 colon
  TGI: > 100 µM
HCT-15 colon
  TGI: > 100 µM
MOLT-4 leukemia
  TGI: > 100 µM
NCI-H23 lung
  TGI: > 100 µM
NCI-H460 lung
  TGI: > 100 µM
OVCAR-5 ovarian
  TGI: > 100 µM
SF-295 CNS
  TGI: > 100 µM
SN12C renal
  TGI: > 100 µM

## CCN1CCN(Cc2ccc(NC(=O)c3cccc(C#Cc4cccc5[nH]nc(N)c45)c3)cc2C(F)(F)F)CC1
MOLT-4 leukemia
  GI50: 0.227 µM
  TGI: 1.16 µM
NCI-H460 lung
  GI50: 0.39 µM
  TGI: 1.66 µM
OVCAR-5 ovarian
  GI50: 0.685 µM
  TGI: 2.07 µM
SK-MEL-2 melanoma
  GI50: 0.352 µM
  TGI: 1.34 µM
SN12C renal
  GI50: 0.584 µM
  TGI: 1.93 µM
T-47D breast
  GI50: 0.975 µM
  TGI: 3.39 µM

## CCOC(=O)C(C)(C)Oc1ccc2c(-c3ccccc3)cc(=O)oc2c1
HCT-116 colon
  TGI: > 100 µM
HCT-15 colon
  TGI: > 100 µM
MOLT-4 leukemia
  TGI: 54.6 µM
NCI-H23 lung
  TGI: > 100 µM
NCI-H460 lung
  TGI: > 100 µM
SF-295 CNS
  TGI: > 100 µM
SK-MEL-2 melanoma
  TGI: 48.7 µM
SN12C renal
  TGI: > 100 µM

## Cc1cc(NS(=O)(=O)c2ccc(Nc3c4ccccc4nc4c(C(=O)N5CCN(CCOS(C)(=O)=O)CC5)cccc34)cc2)no1
HCT-116 colon
  TGI: > 100 µM
HCT-15 colon
  TGI: > 100 µM
MOLT-4 leukemia
  TGI: > 100 µM
NCI-H23 lung
  TGI: > 100 µM
NCI-H460 lung
  TGI: > 100 µM
OVCAR-5 ovarian
  TGI: > 100 µM
SF-295 CNS
  TGI: > 100 µM
SK-MEL-2 melanoma
  TGI: > 100 µM
SN12C renal
  TGI: > 100 µM

## COc1cc2ccnc([C@@H](OC(=O)c3ccccc3)c3ccc(OC)c(OC)c3OC)c2cc1OC
HCT-116 colon
  TGI: > 100 µM
HCT-15 colon
  TGI: > 100 µM
MOLT-4 leukemia
  TGI: > 100 µM
NCI-H23 lung
  TGI: > 100 µM
NCI-H460 lung
  TGI: > 100 µM
OVCAR-5 ovarian
  TGI: > 100 µM
SF-295 CNS
  TGI: > 100 µM
SK-MEL-2 melanoma
  TGI: > 100 µM
SN12C renal
  TGI: > 100 µM

## COC1/C=C/OC2(C)Oc3c(C)c(O)c4c(O)c(c(/C=N/Nc5ccc([N+](=O)[O-])cc5[N+](=O)[O-])c(O)c4c3C2=O)NC(=O)C(C)=C/C=C/C(C)C(O)C(C)C(O)C(C)C(OC(C)=O)C1C (configuration not stated)
HCT-116 colon
  GI50: 0.955 µM
  TGI: 1.9 µM
HCT-15 colon
  GI50: 5.86 µM
  TGI: 31.1 µM
NCI-H23 lung
  GI50: 1.7 µM
  TGI: 7.02 µM
NCI-H460 lung
  GI50: 5.22 µM
  TGI: 14.7 µM
OVCAR-5 ovarian
  GI50: 3.59 µM
  TGI: 11.6 µM
SF-295 CNS
  GI50: 5.64 µM
  TGI: 20.1 µM
SN12C renal
  GI50: 10.2 µM
  TGI: > 50 µM
T-47D breast
  GI50: 2.07 µM
  TGI: > 50 µM

## O=C(Nc1nc2ccc([N+](=O)[O-])cc2s1)C(=O)C(C1OC(=O)c2ccccc21)[N+](=O)[O-] (configuration not stated)
HCT-116 colon
  TGI: > 100 µM
HCT-15 colon
  TGI: > 100 µM
MOLT-4 leukemia
  TGI: > 100 µM
NCI-H23 lung
  TGI: > 100 µM
NCI-H460 lung
  TGI: > 100 µM
OVCAR-5 ovarian
  TGI: > 100 µM
SF-295 CNS
  TGI: > 100 µM
SK-MEL-2 melanoma
  TGI: > 100 µM
SN12C renal
  TGI: > 100 µM

## CCC[CH2][Sn]([CH2]CCC)([S]c1cccc2cccnc12)[S]c1cccc2cccnc12
HCT-116 colon
  GI50: 0.155 µM
  TGI: 0.303 µM
HCT-15 colon
  GI50: 0.176 µM
  TGI: 0.411 µM
MOLT-4 leukemia
  GI50: 0.109 µM
  TGI: 0.397 µM
NCI-H23 lung
  GI50: 0.161 µM
  TGI: 0.422 µM
NCI-H460 lung
  GI50: 0.151 µM
  TGI: 0.356 µM
SF-295 CNS
  GI50: 0.404 µM
  TGI: 1.39 µM
SN12C renal
  GI50: 0.24 µM
  TGI: 0.822 µM
